Assays:
[1] = tested on: liver organoids; experiment: Real-time quantitative PCR of lipogenesis- and fibrosis-related genes in fatty liver organoids; assay type: cell-based, mice; conditions: mouse fatty liver organoids, 1 and 3 μM, 72 hours, qPCR
Description: Liver samples or liver organoid samples were homogenized in TRI Reagent (T9424, Sigma), and total RNA was extracted according to the manufacturer's instructions. Equal amounts of RNA template were used to synthesize cDNA with oligo dT primers and MLV reverse transcriptase (Promega). Quantitative data for genes were collected using the Bio-Rad CFX96 real-time PCR system, and the relative amount of gene mRNA was quantified using the comparative CT method.
(§1) C57BL/6N mice were fed with fatty liver-inducing diet (TrophicDiet, TP2630052A, containing 10.2% kcal protein, 37.3% kcal carbohydrate, and 52.6% kcal fat) and fructose-containing drinking water (23.1 g of fructose and 18.9 g of dextrose were dissolved in 1 L of water, then filtered and sterilized) for a total of 16 weeks starting at 12 weeks of age to generate a fatty liver model. To generate fatty liver organoids, liver tissues from mice with fatty liver were minced and digested in digestion buffer at 37° C. for 30 to 60 minutes. The digestion buffer included DMEM/F-12 (Cytiva, SH30023.01), 2.5 mg/mL collagenase D (Roche, COLLD-RO), and 0.1 mg/mL DNaseI (Sigma-Aldrich, DN25). […]
To distinguish whether the inhibitory effect of 25-hydroxylanosterol is directly based on its effect on the liver or a systemic effect, we utilized 3D liver organoids as an in vitro model for the study of fatty liver to analyze the effect of 25-hydroxylanosterol on lipogenesis and fibrosis marker expression in liver organoids. […] RNA from the organoids was collected and analyzed for the differential expression of lipogenesis-related genes (Hmgcs, Hmgcr, SCD1, and FASN) and fibrosis markers (αSMA and Colla1) using fluorescent real-time quantitative PCR.
(§2) In FIGS. 35 and 36, data are represented as mean±standard deviation. P values were calculated using one-way ANOVA; ns indicates no statistical difference; * indicates P<0.05; ** indicates P<0.01; *** indicates P<0.001. In FIGS. 47 and 53, quantitative analysis was performed using ImageJ software. […] P values were calculated using one-way ANOVA; * indicates P<0.05; ** indicates P<0.01; *** indicates P<0.001.

[2] = tested on: liver organoids; experiment: Nile Red and αSMA immunofluorescence staining of fatty liver organoids; assay type: cell-based, mice; conditions: mouse fatty liver organoids, 1 and 3 μM, 72 hours
Protocol: as §1, with “DN25). Isolated single hepatocytes were filtered through a 70 μm filter membrane and washed once. Cells were collected by centrifugation, and resuspended in a mixture of culture medium and basement membrane extract (BME) (R&D Systems, 3533-010-02) at a ratio of 1:3.” for “DN25).”
as §2

C[C@H](CCCC(C)(C)O)[C@H]1CC[C@@]2(C)C3=C(CC[C@]12C)[C@@]1(C)CC[C@H](O)C(C)(C)[C@@H]1CC3 [compound 68, (1R,3aR,5aR,7S,9aS,11aR)-1-[(2R)-6-hydroxy-6-methylheptan-2-yl]-3a,6,6,9a,11a-pentamethyl-2,3,3a,4,5,5a,6,7,8,9,9a,10,11,11a-tetradecahydro-1H-cyclopenta[1,2-a]phenanthren-7-ol]
expression levels of fibrosis-related genes (Col1a1 and αSMA) [1]: significantly inhibited
expression levels of lipogenesis-related genes (Hmgcs, Hmgcr, SCD1, and FASN) [1]: significantly inhibited
expression of fibrosis marker protein αSMA (immunofluorescence staining) [2]: decreasing
lipid accumulation in organoids (Nile Red staining) [2]: reduced
